Laboratory results as given in patent US10597388B2, “Pyridazinone herbicides” (FMC CORPORATION, priority 2014, dated 2020).

Experiments:
Assay in all cases: Test D controlled growth environment herbicide test, pre- and postemergence
Assay type in all cases: in vivo
[1] = system: barley, winter (winter barley, Hordeum vulgare)
In short: (§1)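 Species sown in silt loam and sprayed preemergence, or grown in peat-based medium to 2–18 cm (1- to 4-leaf stage) and sprayed postemergence, with compounds in non-phytotoxic solvent plus surfactant. Visual injury scored versus controls after 14–21 d in a controlled environment, 0 (no effect) to 100 (complete control).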

[2] = system: kochia (Kochia scoparia)
In short: as §1

[3] = system: pigweed (Amaranthus retroflexus)
In short: as §1

[4] = system: windgrass (Apera spica-venti)
In short: as §1

[5] = system: chickweed (common chickweed, Stellaria media)
In short: as §1

[6] = system: Russian thistle (Salsola kali)
In short: as §1

[7] = system: bromegrass, downy (downy bromegrass, Bromus tectorum)
In short: as §1

[8] = system: buckwheat, wild (wild buckwheat, Polygonum convolvulus)
In short: as §1

[9] = system: field violet (Viola arvensis)
In short: as §1

[10] = system: galium (catchweed bedstraw, Galium aparine)
In short: as §1

[11] = system: radish, wild (wild radish, Raphanus raphanistrum)
In short: as §1

[12] = system: canarygrass (Phalaris minor)
In short: as §1

[13] = system: oat, wild (wild oat, Avena fatua)
In short: as §1

[14] = Postemergence, 31 g ai/ha, scale 0 to 100 (0 no effect, 100 complete control)
[15] = Postemergence, 125 g ai/ha, visual rating on scale 0 (no effect) to 100 (complete control), 14 to 21 d
[16] = Postemergence, 250 g ai/ha, scale 0 to 100 (0 no effect, 100 complete control)
[17] = Preemergence, 62 g ai/ha, scale 0 to 100 (0 no effect, 100 complete control)
[18] = Preemergence, 125 g ai/ha, scale 0 to 100 (0 no effect, 100 complete control)
[19] = Preemergence, 250 g ai/ha, scale 0 to 100 (0 no effect, 100 complete control)
[20] = postemergence, 62 g ai/ha, scale 0 to 100, 0 no effect, 100 complete control

Cc1cc(C)c2sc(C)c(-c3c(OC(=O)OCCCl)c(C)nn(C)c3=O)c2c1 [Compound 85]
Barley, Winter plant response rating [1, 14]: 0 | Plant response rating, Barley, Winter [1, 15]: 5 | Plant response rating, Barley, Winter [1, 16]: 10 | Plant response rating (scale of 0 to 100), Barley, Winter ([1]; Preemergence, 31 g ai/ha): 0 | Plant response rating, Barley, Winter [1, 17]: 0 | Plant response rating, Barley, Winter [1, 18]: 0 | Plant response rating, Barley, Winter [1, 19]: 15 | Plant response rating, Barley, Winter [1, 20]: 0 | Kochia plant response rating [2, 14]: 40 | Plant response rating, Kochia [2, 15]: 70 | Plant response rating, Kochia [2, 16]: 75 | Plant response rating (scale of 0 to 100), Kochia ([2]; Preemergence, 31 g ai/ha): 5 | Plant response rating (scale of 0 to 100), Kochia ([2]; Preemergence, 62 g ai/ha): 10 | Plant response rating, Kochia [2, 18]: 10 | Plant response rating, Kochia [2, 19]: 45 | Plant response rating, Kochia [2, 20]: 65 | Pigweed plant response rating [3, 14]: 75 | Plant response rating, Pigweed [3, 15]: 85 | Plant response rating, Pigweed [3, 16]: 85 | Plant response rating (scale of 0 to 100), Pigweed ([3]; Preemergence, 31 g ai/ha): 95 | Plant response rating (scale of 0 to 100), Pigweed ([3]; Preemergence, 62 g ai/ha): 100 | Plant response rating, Pigweed [3, 18]: 100 | Plant response rating, Pigweed [3, 19]: 100 | Plant response rating, Pigweed [3, 20]: 80 | Windgrass plant response rating [4, 14]: 60 | Plant response rating, Windgrass [4, 15]: 80 | Plant response rating, Windgrass [4, 16]: 85 | Plant response rating (scale of 0 to 100), Windgrass ([4]; Preemergence, 31 g ai/ha): 55 | Plant response rating (scale of 0 to 100), Windgrass ([4]; Preemergence, 62 g ai/ha): 70 | Plant response rating, Windgrass [4, 18]: 95 | Plant response rating, Windgrass [4, 19]: 100 | Plant response rating, Windgrass [4, 20]: 70 | Chickweed plant response rating [5, 14]: 90 | Plant response rating, Chickweed [5, 15]: 100 | Plant response rating, Chickweed [5, 16]: 100 | Plant response rating (scale of 0 to 100), Chickweed ([5]; Preemergence, 31 g ai/ha): 100 | Plant response rating (scale of 0 to 100), Chickweed ([5]; Preemergence, 62 g ai/ha): 100 | Plant response rating, Chickweed [5, 18]: 100 | Plant response rating, Chickweed [5, 19]: 100 | Plant response rating, Chickweed [5, 20]: 100 | Russian Thistle plant response rating [6, 14]: 65 | Plant response rating, Russian Thistle [6, 15]: 80 | Plant response rating, Russian Thistle [6, 16]: 90 | Plant response rating (scale of 0 to 100), Russian Thistle ([6]; Preemergence, 31 g ai/ha): 5 | Plant response rating (scale of 0 to 100), Russian Thistle ([6]; Preemergence, 62 g ai/ha): 10 | Plant response rating, Russian Thistle [6, 18]: 25 | Plant response rating, Russian Thistle [6, 19]: 75 | Plant response rating, Russian Thistle [6, 20]: 75 | Bromegrass, Downy plant response rating [7, 14]: 30 | Plant response rating, Bromegrass, Downy [7, 15]: 35 | Plant response rating, Bromegrass, Downy [7, 16]: 60 | Plant response rating (scale of 0 to 100), Bromegrass, Downy ([7]; Preemergence, 31 g ai/ha): 15 | Plant response rating, Bromegrass, Downy [7, 17]: 35 | Plant response rating, Bromegrass, Downy [7, 18]: 55 | Plant response rating, Bromegrass, Downy [7, 19]: 80 | Plant response rating, Bromegrass, Downy [7, 20]: 30 | Buckwheat, Wild plant response rating [8, 14]: 95 | Plant response rating, Buckwheat, Wild [8, 15]: 100 | Plant response rating, Buckwheat, Wild [8, 16]: 100 | Plant response rating (scale of 0 to 100), Buckwheat, Wild ([8]; Preemergence, 31 g ai/ha): 20 | Plant response rating, Buckwheat, Wild [8, 17]: 65 | Plant response rating, Buckwheat, Wild [8, 18]: 80 | Plant response rating, Buckwheat, Wild [8, 19]: 100 | Plant response rating, Buckwheat, Wild [8, 20]: 100 | Field Violet plant response rating [9, 14]: 65 | Plant response rating, Field Violet [9, 15]: 75 | Plant response rating, Field Violet [9, 16]: 90 | Plant response rating (scale of 0 to 100), Field Violet ([9]; Preemergence, 31 g ai/ha): 65 | Plant response rating (scale of 0 to 100), Field Violet ([9]; Preemergence, 62 g ai/ha): 70 | Plant response rating, Field Violet [9, 18]: 95 | Plant response rating, Field Violet [9, 19]: 100 | Plant response rating, Field Violet [9, 20]: 65 | Galium plant response rating [10, 14]: 85 | Plant response rating, Galium [10, 15]: 100 | Plant response rating, Galium [10, 16]: 100 | Plant response rating (scale of 0 to 100), Galium ([10]; Preemergence, 31 g ai/ha): 30 | Plant response rating (scale of 0 to 100), Galium ([10]; Preemergence, 62 g ai/ha): 70 | Plant response rating, Galium [10, 18]: 75 | Plant response rating, Galium [10, 19]: 100 | Plant response rating, Galium [10, 20]: 95 | Radish, Wild plant response rating [11, 14]: 60 | Plant response rating, Radish, Wild [11, 15]: 75 | Plant response rating, Radish, Wild [11, 16]: 80 | Plant response rating (scale of 0 to 100), Radish, Wild ([11]; Preemergence, 31 g ai/ha): 0 | Plant response rating (scale of 0 to 100), Radish, Wild ([11]; Preemergence, 62 g ai/ha): 25 | Plant response rating, Radish, Wild [11, 18]: 100 | Plant response rating, Radish, Wild [11, 19]: 100 | Plant response rating, Radish, Wild [11, 20]: 65 | Canarygrass plant response rating [12, 14]: 75 | Plant response rating, Canarygrass [12, 15]: 85 | Plant response rating, Canarygrass [12, 16]: 90 | Plant response rating (scale of 0 to 100), Canarygrass ([12]; Preemergence, 31 g ai/ha): 80 | Plant response rating (scale of 0 to 100), Canarygrass ([12]; Preemergence, 62 g ai/ha): 90 | Plant response rating, Canarygrass [12, 18]: 90 | Plant response rating, Canarygrass [12, 19]: 95 | Plant response rating, Canarygrass [12, 20]: 85 | Oat, Wild plant response rating [13, 14]: 75 | Plant response rating, Oat, Wild [13, 15]: 95 | Plant response rating, Oat, Wild [13, 16]: 100 | Plant response rating (scale of 0 to 100), Oat, Wild ([13]; Preemergence, 31 g ai/ha): 75 | Plant response rating (scale of 0 to 100), Oat, Wild ([13]; Preemergence, 62 g ai/ha): 75 | Plant response rating, Oat, Wild [13, 18]: 85 | Plant response rating, Oat, Wild [13, 19]: 90 | Plant response rating, Oat, Wild [13, 20]: 85
